Assay results: ChEMBL document CHEMBL3864167, “Structure-Activity Relationship, Drug Metabolism and Pharmacokinetics Properties Optimization, and in Vivo Studies of New Brain Penetrant Triple T-Type Calcium Channel Blockers” (J Med Chem, 2016)

Key:
[1] = target: Voltage-dependent T-type calcium channel subunit alpha-1G (Homo sapiens, UniProt O43497); experiment: Channel blocking activity at recombinant human CaV 3.1 channel expressed in HEK293 cells assessed as inhibition of Ca2+ flux preincubated for 3 mins followed by CaCl2 addition by fluo-4 dye-based FLIPR assay; type: cell-based
Sequence of Voltage-dependent T-type calcium channel subunit alpha-1G (O43497 whole entry): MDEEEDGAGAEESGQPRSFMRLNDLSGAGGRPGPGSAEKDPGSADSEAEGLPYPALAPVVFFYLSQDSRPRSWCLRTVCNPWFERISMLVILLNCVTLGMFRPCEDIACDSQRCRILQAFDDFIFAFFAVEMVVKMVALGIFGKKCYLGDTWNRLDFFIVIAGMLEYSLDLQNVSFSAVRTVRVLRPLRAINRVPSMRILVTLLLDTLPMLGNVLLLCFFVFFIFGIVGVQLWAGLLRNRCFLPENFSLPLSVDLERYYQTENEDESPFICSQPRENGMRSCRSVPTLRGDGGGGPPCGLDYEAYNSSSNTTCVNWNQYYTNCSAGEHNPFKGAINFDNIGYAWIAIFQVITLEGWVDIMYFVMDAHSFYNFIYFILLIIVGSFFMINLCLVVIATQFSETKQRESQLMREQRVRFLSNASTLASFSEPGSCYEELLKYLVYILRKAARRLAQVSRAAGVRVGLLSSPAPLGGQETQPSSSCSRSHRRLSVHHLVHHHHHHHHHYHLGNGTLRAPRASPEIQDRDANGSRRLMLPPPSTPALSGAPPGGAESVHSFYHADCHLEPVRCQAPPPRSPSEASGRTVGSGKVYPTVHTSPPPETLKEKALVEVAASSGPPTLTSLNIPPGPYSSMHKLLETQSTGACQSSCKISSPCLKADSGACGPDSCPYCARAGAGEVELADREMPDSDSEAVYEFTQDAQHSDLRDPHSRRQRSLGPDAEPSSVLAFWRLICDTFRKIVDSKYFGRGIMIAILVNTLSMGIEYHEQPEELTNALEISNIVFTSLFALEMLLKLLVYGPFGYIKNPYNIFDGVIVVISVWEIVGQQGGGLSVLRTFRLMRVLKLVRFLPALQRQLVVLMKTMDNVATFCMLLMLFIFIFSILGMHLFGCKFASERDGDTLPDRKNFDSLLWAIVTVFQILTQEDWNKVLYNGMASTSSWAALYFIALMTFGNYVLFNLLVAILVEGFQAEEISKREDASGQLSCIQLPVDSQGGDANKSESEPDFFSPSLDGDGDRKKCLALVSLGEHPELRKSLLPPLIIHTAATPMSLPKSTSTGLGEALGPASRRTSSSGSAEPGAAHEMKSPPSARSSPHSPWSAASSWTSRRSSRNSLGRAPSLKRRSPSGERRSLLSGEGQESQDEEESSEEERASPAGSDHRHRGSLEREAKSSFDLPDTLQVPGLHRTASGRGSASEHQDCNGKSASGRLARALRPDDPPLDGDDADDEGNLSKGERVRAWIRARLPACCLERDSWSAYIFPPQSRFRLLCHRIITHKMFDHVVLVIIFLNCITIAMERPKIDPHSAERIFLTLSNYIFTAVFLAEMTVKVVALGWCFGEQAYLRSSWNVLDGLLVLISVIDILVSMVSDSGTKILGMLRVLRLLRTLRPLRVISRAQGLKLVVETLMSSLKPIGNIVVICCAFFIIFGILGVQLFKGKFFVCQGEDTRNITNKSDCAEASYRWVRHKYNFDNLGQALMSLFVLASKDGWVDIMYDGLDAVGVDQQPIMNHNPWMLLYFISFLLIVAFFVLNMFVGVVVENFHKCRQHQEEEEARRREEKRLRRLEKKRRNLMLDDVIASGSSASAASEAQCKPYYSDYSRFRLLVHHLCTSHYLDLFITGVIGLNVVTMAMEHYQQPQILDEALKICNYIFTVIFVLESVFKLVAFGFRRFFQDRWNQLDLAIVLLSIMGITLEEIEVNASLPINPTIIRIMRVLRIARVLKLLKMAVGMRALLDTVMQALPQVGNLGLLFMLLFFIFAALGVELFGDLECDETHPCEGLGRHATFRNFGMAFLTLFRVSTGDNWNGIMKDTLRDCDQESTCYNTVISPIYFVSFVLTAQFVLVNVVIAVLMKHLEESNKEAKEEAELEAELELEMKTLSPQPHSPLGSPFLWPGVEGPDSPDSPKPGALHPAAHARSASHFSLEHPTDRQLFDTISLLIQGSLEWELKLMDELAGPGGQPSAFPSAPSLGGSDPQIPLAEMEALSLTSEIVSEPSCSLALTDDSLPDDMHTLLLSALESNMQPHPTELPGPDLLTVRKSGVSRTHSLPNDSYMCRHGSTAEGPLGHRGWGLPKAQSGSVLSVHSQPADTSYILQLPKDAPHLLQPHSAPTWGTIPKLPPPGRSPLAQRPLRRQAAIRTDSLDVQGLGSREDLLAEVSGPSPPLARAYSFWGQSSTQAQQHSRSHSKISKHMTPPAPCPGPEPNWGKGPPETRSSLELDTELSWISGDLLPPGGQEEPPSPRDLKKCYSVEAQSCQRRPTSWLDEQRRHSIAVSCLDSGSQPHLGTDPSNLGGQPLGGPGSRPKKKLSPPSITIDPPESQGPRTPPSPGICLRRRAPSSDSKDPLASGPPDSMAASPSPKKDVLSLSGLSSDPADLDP

[2] = target: Voltage-dependent T-type calcium channel subunit alpha-1H (Homo sapiens, UniProt O95180); experiment: Channel blocking activity at recombinant human CaV 3.2 channel expressed in HEK293 cells assessed as inhibition of Ca2+ flux preincubated for 3 mins followed by CaCl2 addition by fluo-4 dye-based FLIPR assay; type: cell-based
[3] = target: Voltage-dependent T-type calcium channel subunit alpha-1I (Homo sapiens, UniProt Q9P0X4); experiment: Channel blocking activity at recombinant human CaV 3.3 channel expressed in HEK293 cells assessed as inhibition of Ca2+ flux preincubated for 3 mins followed by CaCl2 addition by fluo-4 dye-based FLIPR assay; type: cell-based
Sequence of Voltage-dependent T-type calcium channel subunit alpha-1I (Q9P0X4 whole entry): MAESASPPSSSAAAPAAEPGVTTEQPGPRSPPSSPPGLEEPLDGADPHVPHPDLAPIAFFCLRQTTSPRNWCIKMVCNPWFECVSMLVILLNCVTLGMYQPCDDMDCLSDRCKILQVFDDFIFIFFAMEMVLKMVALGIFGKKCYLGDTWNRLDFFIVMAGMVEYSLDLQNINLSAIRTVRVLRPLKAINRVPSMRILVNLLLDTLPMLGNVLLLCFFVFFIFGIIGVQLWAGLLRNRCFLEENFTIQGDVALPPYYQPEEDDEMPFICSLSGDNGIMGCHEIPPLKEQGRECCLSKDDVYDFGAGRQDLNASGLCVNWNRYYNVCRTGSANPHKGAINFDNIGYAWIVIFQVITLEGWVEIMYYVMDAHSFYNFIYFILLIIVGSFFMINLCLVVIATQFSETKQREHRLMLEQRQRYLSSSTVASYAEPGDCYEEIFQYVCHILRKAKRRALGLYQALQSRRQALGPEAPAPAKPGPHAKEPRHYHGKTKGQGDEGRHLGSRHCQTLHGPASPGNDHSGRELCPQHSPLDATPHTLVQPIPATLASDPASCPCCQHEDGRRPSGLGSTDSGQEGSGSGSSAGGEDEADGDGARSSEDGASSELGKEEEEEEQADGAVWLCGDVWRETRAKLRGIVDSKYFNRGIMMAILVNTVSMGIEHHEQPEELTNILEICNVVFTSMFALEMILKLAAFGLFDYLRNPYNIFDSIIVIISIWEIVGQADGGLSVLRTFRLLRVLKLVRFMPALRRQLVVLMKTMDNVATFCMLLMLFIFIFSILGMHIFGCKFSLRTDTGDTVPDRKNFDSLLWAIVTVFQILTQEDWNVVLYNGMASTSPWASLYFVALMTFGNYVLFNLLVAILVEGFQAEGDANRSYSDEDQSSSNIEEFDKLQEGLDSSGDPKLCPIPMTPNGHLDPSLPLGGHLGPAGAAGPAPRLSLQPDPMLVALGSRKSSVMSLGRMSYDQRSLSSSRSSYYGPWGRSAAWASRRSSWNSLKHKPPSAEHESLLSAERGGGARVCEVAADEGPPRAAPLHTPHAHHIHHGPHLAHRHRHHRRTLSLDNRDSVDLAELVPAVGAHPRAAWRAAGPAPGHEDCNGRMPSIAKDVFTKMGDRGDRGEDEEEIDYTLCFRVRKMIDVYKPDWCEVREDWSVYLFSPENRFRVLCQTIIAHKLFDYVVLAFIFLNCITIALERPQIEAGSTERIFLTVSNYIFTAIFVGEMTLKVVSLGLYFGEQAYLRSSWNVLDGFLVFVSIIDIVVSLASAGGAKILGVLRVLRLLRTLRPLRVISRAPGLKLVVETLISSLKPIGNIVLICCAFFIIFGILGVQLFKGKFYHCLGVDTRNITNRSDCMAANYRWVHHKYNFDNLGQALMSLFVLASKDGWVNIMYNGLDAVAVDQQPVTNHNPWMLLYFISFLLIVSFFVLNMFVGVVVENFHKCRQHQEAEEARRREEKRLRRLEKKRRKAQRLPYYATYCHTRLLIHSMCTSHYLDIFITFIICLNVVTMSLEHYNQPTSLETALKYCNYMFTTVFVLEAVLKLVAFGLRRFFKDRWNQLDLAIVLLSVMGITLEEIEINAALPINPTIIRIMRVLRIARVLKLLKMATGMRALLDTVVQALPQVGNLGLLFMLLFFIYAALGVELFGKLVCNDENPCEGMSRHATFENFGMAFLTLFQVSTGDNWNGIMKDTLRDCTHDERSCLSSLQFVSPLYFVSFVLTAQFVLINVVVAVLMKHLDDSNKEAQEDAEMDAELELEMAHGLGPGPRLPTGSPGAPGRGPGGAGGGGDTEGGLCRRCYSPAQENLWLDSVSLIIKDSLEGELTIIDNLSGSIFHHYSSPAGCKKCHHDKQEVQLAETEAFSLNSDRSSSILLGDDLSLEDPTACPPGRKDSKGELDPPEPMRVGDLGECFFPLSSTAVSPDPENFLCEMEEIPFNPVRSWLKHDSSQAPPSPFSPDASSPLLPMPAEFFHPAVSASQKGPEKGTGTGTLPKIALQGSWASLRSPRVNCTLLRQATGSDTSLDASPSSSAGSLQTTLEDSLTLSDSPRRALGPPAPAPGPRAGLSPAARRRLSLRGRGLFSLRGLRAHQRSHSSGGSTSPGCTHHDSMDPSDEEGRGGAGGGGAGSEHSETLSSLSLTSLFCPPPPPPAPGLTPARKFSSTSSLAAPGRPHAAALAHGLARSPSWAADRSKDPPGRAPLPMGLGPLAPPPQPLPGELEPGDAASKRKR

[4] = Intrinsic clearance in human liver microsomes at 1 uM up to 15 mins in presence of NADPH by LC-MS-MS analysis; type: ADME; settings: read-out: CLH

Row | Compound | IC50 [1] [nM] | IC50 [2] [nM] | IC50 [3] [nM] | microsomal CLint at 1 µM [4] [µL/min/mg]
1 | C[C@@H]1CN(Cc2ccccc2)c2ncc(F)cc2[C@H](C)N1C(=O)NCc1ccccc1 (racemic) | 65 | 95 | 15 | 837
2 | COc1ccc(CN2C[C@@H](C)N(C(=O)NCc3ccccc3)[C@@H](C)c3ccccc32)cn1 (racemic) | 45 | 33 | 10 | > 1250
3 | [2H]C([2H])(c1ccccc1)N1C[C@@H](C)N(C(=O)Nc2cccnc2)[C@@H](C)c2ccccc21 (racemic) | 27 | 25 | 4 | 1110
4 | COc1ccc2c(c1)[C@H](C)N(C(=O)Nc1cccnc1)[C@H](C)CN2Cc1ccccc1 (racemic) | 390 | 530 | 100 | 521
5 | C[C@@H]1CN(Cc2ccccc2)c2ccccc2[C@H](C)N1C(=O)C1CCOCC1 (racemic) | 24 | 47 | 8 | 1160
6 | C[C@@H]1CN(Cc2cccc(C(F)(F)F)n2)c2ccccc2[C@H](C)N1C(=O)NCc1ccccc1 (racemic) | 25 | 42 | 14 | > 1250
7 | C[C@@H]1CN(Cc2ccccc2)c2ccccc2[C@H](C)N1C(=O)NCc1ccccc1 | 5 | 17 | 2 | 
8 | C[C@@H]1CN(Cc2ccccc2)c2cnc(Cl)cc2[C@H](C)N1C(=O)NCc1ccccc1 (racemic) | 220 | 224 | 55 | > 1250
9 | C[C@@H]1CN(Cc2cccnc2)c2ccccc2[C@H](C)N1C(=O)NCc1ccccc1 (racemic) | 476 | 500 | 95 | 
10 | C[C@@H]1CN(Cc2ccccc2)c2cc(S(C)(=O)=O)ccc2[C@H](C)N1C(=O)Nc1cccnc1 (racemic) | > 10000 | > 8000 | > 10000 | 
11 | C[C@@H]1C(=O)N(Cc2ccccc2)c2ccccc2[C@H](C)N1C(=O)NCc1ccccc1 (racemic) | 304 | 682 | 259 | > 1250
12 | C[C@@H]1CN(CCOC(C)(C)C)c2ccccc2[C@H](C)N1C(=O)NCc1ccccc1 (racemic) | 35 | 44 | 12 | 
13 | C[C@@H]1CN(Cc2ccccc2)c2nc(C(F)(F)F)ccc2[C@H](C)N1C(=O)NCc1ccccc1 (racemic) | 57 | 104 | 281 | 531
14 | C[C@@H]1CN(C(=O)c2ccccc2)c2ccccc2[C@H](C)N1C(=O)NCc1ccccc1 (racemic) | 6070 | > 11500 | > 10000 | 
15 | O=C(NCc1ccccc1)N1CCN(Cc2ccccc2)c2ccccc2C1 | 305 | 392 | 214 | > 1250
16 | C[C@@H]1CN(Cc2ccccc2)c2cccc(F)c2[C@H](C)N1C(=O)CCc1cccnc1 (racemic) | 47 | 52 | 17 | 562
17 | C[C@@H]1CN(Cc2ccccc2)c2cncnc2[C@H](C)N1C(=O)NCc1ccccc1 (racemic) | > 8500 | > 6400 | 1000 | 
18 | C[C@@H]1CN(Cc2ccc(F)cc2)c2ccccc2[C@H](C)N1C(=O)Nc1cccnc1 (racemic) | 25 | 31 | 7 | > 1250
19 | C[C@@H]1CN(Cc2cnc(C(F)(F)F)s2)c2cccc(F)c2[C@H](C)N1C(=O)CCc1cccnc1 (racemic) | 115 | 93 | 20 | 193
20 | C[C@@H]1CN(c2ccccc2)c2ccccc2[C@H](C)N1C(=O)NCc1ccccc1 (racemic) | 256 | 209 | 225 | > 1250
21 | COc1cccc2c1[C@H](C)N(C(=O)Nc1cccnc1)[C@H](C)CN2Cc1ccccc1 (racemic) | 188 | 305 | 130 | 
22 | C[C@@H]1CN(S(=O)(=O)c2ccccc2)c2ccccc2[C@H](C)N1C(=O)Nc1cccnc1 (racemic) | > 10000 | 4690 | 1810 | 
23 | C[C@@H]1CN(Cc2ccncc2)c2ccccc2[C@H](C)N1C(=O)NCc1ccccc1 (racemic) | > 7260 | > 8580 | 1710 | 
24 | C[C@@H]1CN(Cc2ccccc2)c2cccnc2[C@H](C)N1C(=O)NCc1ccccc1 (racemic) | 597 | 212 | 91 | 
25 | COc1cc2c(cc1F)N(Cc1ccccc1)C[C@@H](C)N(C(=O)Nc1cccnc1)[C@H]2C (racemic) | 370 | 414 | 73 | 
26 | C[C@@H]1c2ccncc2N(Cc2ccccc2)C[C@H](C)N1C(=O)NCc1ccccc1 | > 10000 | > 11000 | > 10000 | 
27 | C[C@@H]1CN(Cc2ccccc2)c2c(cnn2C)[C@H](C)N1C(=O)NCc1ccccc1 (racemic) | > 9400 | > 7300 | > 10000 | 
28 | COc1cccc2c1N(Cc1ccccc1)C[C@@H](C)N(C(=O)Nc1cccnc1)[C@H]2C (racemic) | > 5300 | > 6500 | > 9000 | 

Continued by falling IC50 [1], values first:

Row | IC50 [1] [nM] | IC50 [2] [nM] | IC50 [3] [nM] | microsomal CLint at 1 µM [4] [µL/min/mg] | Compound
29 | 6280 | > 11000 | > 8740 |  | C[C@@H]1CN(Cc2ccccc2)c2ccncc2[C@H](C)N1C(=O)NCc1ccccc1 (racemic)
30 | 6110 | 7410 | > 10000 |  | C[C@@H]1CN(Cc2ccccc2)c2ccccc2[C@H](C)N1CC1CCOCC1 (racemic)
31 | 1140 | 695 | 206 |  | C[C@@H]1CN(Cc2ccccc2)c2nnccc2[C@H](C)N1C(=O)NCc1ccccc1 (racemic)
32 | 605 | 479 | 97 |  | C[C@@H]1CN(Cc2ccccn2)c2ccccc2[C@H](C)N1C(=O)NCc1ccccc1 (racemic)
33 | 576 | 1490 | 210 |  | C[C@@H]1CN(Cc2ccccc2)c2ccccc2[C@H](C)N1S(=O)(=O)c1cn(C)cn1 (racemic)
34 | 457 | 835 | 892 |  | C[C@@H]1CN(Cc2ccccc2)c2ccccc2[C@H](C)N1C(=O)N(C)Cc1ccccc1 (racemic)
35 | 420 | 841 | 473 |  | C[C@@H]1CN(Cc2ccccc2)c2ccccc2[C@H](C)N1C(=O)OCc1ccccc1 (racemic)
36 | 293 | 464 | 1000 |  | C[C@H]1c2ccccc2N(Cc2ccccc2)[C@@H](C)CN1C(=O)NCc1ccccc1 (racemic)
37 | 286 | 428 | 137 |  | C[C@@H]1CN(Cc2ccccc2)c2cc(Br)ccc2[C@H](C)N1C(=O)Nc1cccnc1 (racemic)
38 | 262 | 358 | 641 |  | C[C@@H]1c2ccccc2N(Cc2ccccc2)C[C@H](C)N1C(=O)NCc1ccccc1
39 | 227 | 231 | 74 |  | Cc1ccc2c(c1)N(Cc1ccccc1)C[C@@H](C)N(C(=O)Nc1cccnc1)[C@H]2C (racemic)
40 | 211 | 198 | 326 |  | C[C@@H]1CN(C(=O)NCc2ccccc2)[C@@H](C)c2ccccc2N1Cc1ccccc1 (racemic)
41 | 68 | 112 | 8 | > 1250 | C[C@@H]1CN(Cc2ccccc2)c2ccc(F)cc2[C@H](C)N1C(=O)Nc1cccnc1 (racemic)
42 | 40 | 59 | 13 | 375 | C[C@@H]1CN(Cc2ccccc2)c2cccc(F)c2[C@H](C)N1C(=O)NC1COC1 (racemic)
43 | 38 | 72 | 13 | 212 | C[C@@H]1CN(Cc2cccc(F)c2F)c2cnccc2[C@H](C)N1C(=O)NCc1ccccc1 (racemic)
44 | 33 | 42 | 33 | > 1250 | C[C@@H]1CN(Cc2cnc(C(F)(F)F)s2)c2ccccc2[C@H](C)N1C(=O)Nc1cccnc1 (racemic)
45 | 15 | 31 | 8 | 1060 | C[C@@H]1CN(Cc2ccccc2)c2ncccc2[C@H](C)N1C(=O)NCc1ccccc1 (racemic)
46 | 13 | 15 | 6 | > 1250 | C[C@@H]1CN(Cc2cnc(C(F)(F)F)s2)c2ccccc2[C@H](C)N1C(=O)NCc1ccccc1 (racemic)
47 | 8 | 14 | 5 | > 1250 | C[C@@H]1CN(Cc2cccc(F)c2)c2ccccc2[C@H](C)N1C(=O)Nc1cccnc1 (racemic)
48 | 7 | 6 | 4 | > 1250 | C[C@@H]1CN(Cc2ccccc2)c2nc(F)ccc2[C@H](C)N1C(=O)NCc1ccccc1 (racemic)
49 | 5 | 9 | 4 |  | C[C@@H]1CN(Cc2cccc(F)c2F)c2ccccc2[C@H](C)N1C(=O)NCc1ccccc1 (racemic)
50 | 4 | 11 | 5 | 1200 | C[C@@H]1CN(Cc2ccccc2F)c2ccccc2[C@H](C)N1C(=O)Nc1cccnc1 (racemic)
51 | 4 | 14 | 9 | > 1250 | C[C@@H]1CN(Cc2ccc(C(F)(F)F)o2)c2ccccc2[C@H](C)N1C(=O)Nc1cccnc1 (racemic)
